Reference: the NIST ThermoML archive (doi:10.1021/je1002626)

What was measured:
[1] = 101.33 kPa, Liquid, Pycnometric method
[2] = wn = mass fraction of the nth substance listed; details: for surface tension liquid-gas: Ring tensiometer; for mass density: 101.3 kPa, Liquid, Pycnometric method

CNCCO [2-(methylamino)ethanol]
[1]
Details | mass density [kg/m3]
298.15 K | 936.18
303.15 K | 932.26
313.15 K | 924.42
323.15 K | 916.48

CNCCO [2-(methylamino)ethanol] + O
[2]
Details | mass density [kg/m3] | surface tension liquid-gas [mN/m]
298 K, w1 = 0.1 | – | 60.85
298 K, w1 = 0.2 | – | 56.11
298 K, w1 = 0.3 | – | 52.51
298 K, w1 = 0.4 | – | 49.16
298.15 K, w1 = 0.178 | 996.31 | –
298.15 K, w1 = 1 | 936.18 | –
303 K, w1 = 0.1 | – | 60.02
303 K, w1 = 0.2 | – | 55.28
303 K, w1 = 0.3 | – | 52.33
303 K, w1 = 0.4 | – | 48.15
303.15 K, w1 = 0.178 | 994.38 | –
303.15 K, w1 = 1 | 932.26 | –
308 K, w1 = 0.1 | – | 59.5
308 K, w1 = 0.2 | – | 54.5
308 K, w1 = 0.3 | – | 51.46
308 K, w1 = 0.4 | – | 47.2
308.15 K, w1 = 0.178 | 993.12 | –
313 K, w1 = 0.1 | – | 58.65
313 K, w1 = 0.2 | – | 53.42
313 K, w1 = 0.3 | – | 50.18
313 K, w1 = 0.4 | – | 46.67
313.15 K, w1 = 0.178 | 990.09 | –
313.15 K, w1 = 1 | 924.42 | –
318 K, w1 = 0.1 | – | 57.66
318 K, w1 = 0.2 | – | 52.78
318 K, w1 = 0.3 | – | 49.42
318 K, w1 = 0.4 | – | 45.72
318.15 K, w1 = 0.178 | 988.61 | –
323 K, w1 = 0.1 | – | 56.89
323 K, w1 = 0.2 | – | 51.79
323 K, w1 = 0.3 | – | 48.9
323 K, w1 = 0.4 | – | 44.92
323.15 K, w1 = 0.178 | 984.89 | –
323.15 K, w1 = 1 | 916.48 | –
